Tested on: synovial fibroblasts
Experiment: Measurement of cytosolic calcium in cultured synovial fibroblasts (Fluo-3 AM, FLIPR)
Type: cell-based
Settings: synovial fibroblasts stimulated with increasing concentrations of P2Y receptor agonists; FIG. 1
Excerpt: The pharmaceutical utility of compounds of this invention is indicated by the cytosolic calcium assay for P2Y2 and other P2Y receptor activity. This widely used assay, as described in Pendergast, et al. (2001) (Bioorg. Med. Chem. Lett. 11, 157-160), relies on the measurement of increased cytosolic calcium levels to determine the biological activity of compounds that activate receptors linked via G-proteins to phospholipase C. The efficacy of these compounds is reflected in their ability to alter and/or enhance the secretory activity of the joints, including but not limited to, the knee, hip, and shoulder, to effectuate the agent's target response. The target response is the improvement of joint lubrication and movement.
A conventional technique was used to detect increases in cytosolic calcium induced by P2Y receptor agonists, a technique familiar to those skilled in the art. Cells were seeded in 96-well plates and used for cytosolic calcium assays. On the day of the assay, the growth medium was aspirated and replaced with a solution of Fluo-3 AM (2.5 μM final concentration) in an assay buffer consisting of (mM): KCl (10), NaCl (118), CaCl2 (2.5), MgCl2 (1), HEPES (20), glucose (10), pH 7.4. Probenecid (Sigma Chemical Co.) was added to the dye load and dye wash medium at a working concentration of 2.5 mM to increase dye retention in the cells. After a 60 minute incubation with Fluo-3 AM at 25° C., cells were washed free of dye (Columbus Plate Washer, TECAN U.S., Inc., Research Triangle Park, N.C.) and were stimulated with increasing concentrations of P2Y receptor agonists. Intracellular calcium levels were simultaneously monitored in each well by measuring the changes in fluorescence intensity using the FLIPR (Molecular Devices Corp., Sunnyvale, Calif.).
Synovial fibroblasts were subjected to the cytosolic calcium assay described above. […] The induction of increases in cytosolic calcium by ATP and UTP in synovial fibroblasts indicated the pharmaceutical utility of P2Y2 receptor agonists in the joint.

Structure (SMILES)	effect on cytosolic calcium levels
Nc1ncnc2c1ncn2[C@@H]1O[C@H](COP(=O)(O)OP(=O)(O)OP(=O)(O)O)[C@@H](O)[C@H]1O [ATP, adenosine-5′-triphosphate]	stimulate increases in cytosolic calcium
CSc1nc(N)c2ncn([C@@H]3O[C@H](COP(=O)(O)OP(=O)(O)O)[C@@H](O)[C@H]3O)c2n1 [2-methylthioADP, reference compound]	did not alter cytosolic calcium concentration
O=c1ccn([C@@H]2O[C@H](COP(=O)(O)OP(=O)(O)OP(=O)(O)O)[C@@H](O)[C@H]2O)c(=O)[nH]1 [UTP, uridine-5′-triphosphate]	stimulate increases in cytosolic calcium
